Patent US20250250264A1, “KIF18A INHIBITOR AND USE THEREOF” (Wuhan Humanwell Innovative Drug Research and Development …, priority 2022, published 2025)
Read-outs that look alike come from different tables or passages of the source.

Key:
[1] = molecular target: recombinant protein KIF18A (kinesin domain: aa 1-467) (Homo sapiens (Human), UniProt Q8NI77); test: Assay on inhibition of KIF18A enzymatic activity (ADP-Glo); assay type: biochemical; settings: KIF18A 80 nM, ATP 80 μM, 3 h at room temperature, ADP-Glo luminescence; read-out: IC50 (μM), inhibitory effects of compounds on KIF18A enzymatic activity
Chain of recombinant protein KIF18A (kinesin domain: aa 1-467) (Q8NI77 1-467): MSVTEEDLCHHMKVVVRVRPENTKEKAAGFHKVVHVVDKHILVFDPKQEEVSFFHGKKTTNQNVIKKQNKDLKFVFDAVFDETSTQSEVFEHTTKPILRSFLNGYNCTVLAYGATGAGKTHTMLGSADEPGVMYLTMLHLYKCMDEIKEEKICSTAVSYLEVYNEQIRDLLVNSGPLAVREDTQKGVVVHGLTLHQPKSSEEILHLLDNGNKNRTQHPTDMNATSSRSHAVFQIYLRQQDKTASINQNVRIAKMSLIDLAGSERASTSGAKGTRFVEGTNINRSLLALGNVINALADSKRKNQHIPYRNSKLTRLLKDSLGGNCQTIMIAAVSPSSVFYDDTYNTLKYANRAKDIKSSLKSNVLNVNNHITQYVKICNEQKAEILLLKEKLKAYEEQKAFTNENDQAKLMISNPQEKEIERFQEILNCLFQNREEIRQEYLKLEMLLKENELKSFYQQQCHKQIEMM
Chain of recombinant protein KIF18A (kinesin domain: aa 1-467) (P02550 whole entry partner, the tested form may be a part): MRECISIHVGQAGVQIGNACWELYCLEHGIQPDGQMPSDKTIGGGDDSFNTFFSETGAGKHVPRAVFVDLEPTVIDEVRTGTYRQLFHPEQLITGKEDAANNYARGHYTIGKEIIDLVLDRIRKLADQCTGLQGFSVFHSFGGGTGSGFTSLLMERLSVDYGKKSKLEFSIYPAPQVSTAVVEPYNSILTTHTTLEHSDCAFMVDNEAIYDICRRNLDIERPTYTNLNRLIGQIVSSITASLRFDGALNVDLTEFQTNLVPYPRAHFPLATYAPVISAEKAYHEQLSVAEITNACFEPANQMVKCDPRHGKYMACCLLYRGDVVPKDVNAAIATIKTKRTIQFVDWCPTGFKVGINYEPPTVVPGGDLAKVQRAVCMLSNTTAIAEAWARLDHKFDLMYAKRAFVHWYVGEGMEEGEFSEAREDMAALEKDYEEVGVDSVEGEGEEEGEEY
Chain of recombinant protein KIF18A (kinesin domain: aa 1-467) (P02554 whole entry partner, the tested form may be a part): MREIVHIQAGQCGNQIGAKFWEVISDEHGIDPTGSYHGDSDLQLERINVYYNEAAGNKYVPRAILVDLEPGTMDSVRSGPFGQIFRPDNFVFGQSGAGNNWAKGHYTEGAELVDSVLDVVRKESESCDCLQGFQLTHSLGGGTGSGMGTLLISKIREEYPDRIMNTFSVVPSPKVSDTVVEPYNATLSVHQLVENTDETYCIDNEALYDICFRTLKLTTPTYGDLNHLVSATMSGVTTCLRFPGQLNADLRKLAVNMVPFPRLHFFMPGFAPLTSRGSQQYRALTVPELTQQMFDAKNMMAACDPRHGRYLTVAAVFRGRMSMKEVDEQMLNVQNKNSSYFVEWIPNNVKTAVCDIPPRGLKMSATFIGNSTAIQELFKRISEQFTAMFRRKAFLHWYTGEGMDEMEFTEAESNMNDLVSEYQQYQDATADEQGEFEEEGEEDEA
Description: The recombinant protein KIF18A (kinesin domain: aa 1-467) used in this assay was expressed by the Bac-to-Bac baculovirus expression system from Invitrogen, and the resulting protein was purified for use in this assay (Seki, M. et al. 2003 Nucleic Acids Res.). Quantitative detection of KIF18A enzymatic activity was completed using an ADP-Glo™ kinase assay kit (Promega Inc). Related procedures strictly followed the product instructions, which are briefly described as follows:
The reaction system consisted of a test compound, the recombinant protein KIF18A (aa 1-467), ATP (Promega Inc), and an assay buffer. The test compound was prepared into a 0.5 mM stock solution using DMSO (Sigma Inc) and then serially diluted in DMSO. The assay buffer consisted of an aqueous solution of 15 mM Tris, 10 mM MgCl2 (Sigma Inc), 0.01% Pluronic F-68 (Life Technologies Inc), 1 μM paclitaxel (Cytoskeleton Inc), 30 μg/mL porcine tubulin (Cytoskeleton Inc), and 2% DMSO. The KIF18A protein (final concentration: 80 nM) and the compound at different concentrations (1 μL) were added to the prepared assay buffer (50 μL), and the mixture was incubated at room temperature for 15 min. Then, ATP (final concentration: 80 μM) was added to the reaction mixture, and the resulting mixture was incubated at room temperature for 3 h. After the reaction was completed, 5 μL of the ADP-Glo™ reagent and 2.5 μL of the reaction mixture were added to a 384-well plate (Grenier Inc). The resulting mixture was mixed homogeneously, then sealed by an aluminum foil sealing film, and incubated at room temperature in the dark for 40 min. Finally, 10 μL of the […] was added to each reaction well, and the mixture was incubated at room temperature in the dark for 40 min. After all reactions were completed, the luminescence values of the wells were read on a microplate reader (Molecular Device_SpectraMax Id5), and the inhibition ratios were calculated. The calculation formula for the inhibition rates was as follows: inhibition rate=(1−(compound group−blank group)/(negative control group−blank group))×100%. Then, based on the inhibition rates at different compound concentrations, the IC50 value of the test compound was calculated using the GraphPad Prism 8 software.

[2] = tested on: NIH:OVCAR-3 cells; test: Assay on inhibition of OVCAR3 tumor cell proliferation (CellTiter-Glo); assay type: cell-based; settings: 3 days of drug treatment, read-out: IC50 (μM), inhibitory effects of compounds on tumor cell proliferation
Experimental: NIH:OVCAR-3 cells (ATCC, Cat No. HTB-161, purchased from Co-Bier) were seeded into a T75 culture flask and cultured in an RPMI 1640 medium containing 20% FBS for 3 days in preparation for subsequent culturing and seeding into a 96-well plate for the cell proliferation assay.
The OVCAR3 cells were seeded at a density of 3000 cells/100 μL/well into the 96-well cell plate, and then the plate was incubated in an incubator (37° C., 5% CO2) for 18 h. On the second day, drug treatment was started. Serially diluted test compound solutions (each drug starting at a concentration of 10 μM, diluted in DMSO, with a dilution ratio of 1:3, and nine gradient points for each drug) or DMSO (negative control) was added to the medium in the plate at 100 μL/well, and a blank group was set up with only medium, but no seeded cell strains. After the drug addition, the plate was incubated in the incubator for another 3 days (37° C., 5% CO2). On the fourth day, plate detection was performed. To each well, 100 μL of CellTiter-Glo reagent (Promega G9243) was added. The plate was shaken for 5 min and then left to stand at room temperature for 5 min. The chemical luminescence signal value of each well was determined using a microplate reader (PerkinElmer EnVision®2104). Cell proliferation inhibition rate=(1−(compound group−blank group)/(DMSO group−blank group))×100%. Then, the IC50 value of each compound was calculated using the GraphPad Prism 8 software.

| IC50 [1] [µM] | IC50 ([2]; Homo sapiens, OVCAR-3, 72 h) [µM] | IC50 [2] [µM] | Structure (SMILES) |
| --- | --- | --- | --- |
| 0.002 | 0.107 |  | Cc1cc(-c2cnn(-c3ccc(NS(=O)(=O)[C@@H](C)CO)cc3N3CCC4(CC3)CC4)c2)nc(N2CCC(F)(F)CC2)n1 [Example I-112, (S)—N-(4-(4-(2-(4,4-Difluoropiperidin-1-yl)-6-methylpyrimidin-4-yl)-1H-pyrazol-1-yl)-3-(6-azaspiro[2.5]octan-6-yl)phenyl)-1-hydroxypropane-2-sulfonamide] |
| 0.002 | 0.184 |  | Cc1cc(-c2cnn(-c3ccc(NS(=O)(=O)CCO)cc3N3CCC4(CC3)CC4)c2)nc(N2CCCC(F)(F)C2)n1 [Example I-118, N-(4-(4-(2-(3,3-Difluoropiperidin-1-yl)-6-methylpyrimidin-4-yl)-1H-pyrazol-1-yl)-3-(6-azaspiro[2.5]octan-6-yl)phenyl)-2-hydroxyethane-1-sulfonamide] |
| 0.001 | 0.073 |  | Cc1cc(-c2nnc(-c3ccc(NS(=O)(=O)CCO)cc3N3CCC4(CC3)CC4)o2)nc(N2CCCC(F)(F)C2)n1 [Example I-7, N-(4-(5-(2-(3,3-Difluoropiperidin-1-yl)-6-methylpyrimidin-4-yl)-1,3,4-oxadiazol-2-yl)-3-(6-azaspiro[2.5]octan-6-yl)phenyl)-2-hydroxyethane-1-sulfonamide] |
| 0.009 | 0.148 |  | O=S(=O)(CCO)Nc1ccc(-n2cc(-c3nc(N4CCC(F)(F)CC4)ncc3F)cn2)c(N2CCC3(CC2)CC3)c1 [Example I-129, N-(4-(4-(2-(4,4-Difluoropiperidin-1-yl)-5-fluoropyrimidin-4-yl)-1H-pyrazol-1-yl)-3-(6-azaspiro[2.5]octan-6-yl)phenyl)-2-hydroxyethane-1-sulfonamide] |
| 0.007 | 0.076 |  | Cc1cc(-c2cnn(-c3ccc(NS(=O)(=O)CCO)cc3N3CCC4(CC3)CC4)c2)nc(N2CCC(F)CC2)n1 [Example I-114, N-(4-(4-(2-(4-Fluoropiperidin-1-yl)-6-methylpyrimidin-4-yl)-1H-pyrazol-1-yl)-3-(6-azaspiro[2.5]octan-6-yl)phenyl)-2-hydroxyethane-1-sulfonamide] |
| 0.011 | 0.051 |  | Cc1cc(-c2nnc(-c3ccc(NS(=O)(=O)CCO)cc3N3CCC4(CC3)CC4)o2)nc(N2CC(F)(F)C2)n1 [Example I-3, N-(4-(5-(2-(3,3-Difluoroazetidin-1-yl)-6-methylpyrimidin-4-yl)-1,3,4-oxadiazol-2-yl)-3-(6-azaspiro[2.5]octan-6-yl)phenyl)-2-hydroxyethane-1-sulfonamide] |
| 0.005 | 0.167 |  | Cc1cc(-c2cnn(-c3ccc(NS(=O)(=O)CCO)cc3N3CCC4(CC3)CC4)c2)nc(OCCC(F)(F)F)n1 [Example I-115, N-(4-(4-(6-Methyl-2-(3,3,3-trifluoropropoxy)pyrimidin-4-yl)-1H-pyrazol-1-yl)-3-(6-azaspiro[2.5]octan-6-yl)phenyl)-2-hydroxyethane-1-sulfonamide] |
| 0.002 | 0.412 |  | CCc1cc(-c2cnn(-c3ccc(NS(=O)(=O)CCO)cc3N3CCC4(CC3)CC4)c2)nc(N2CCC(F)(F)CC2)n1 [Example I-95, N-(4-(4-(2-(4,4-Difluoropiperidin-1-yl)-6-ethylpyrimidin-4-yl)-1H-pyrazol-1-yl)-3-(6-azaspiro[2.5]octan-6-yl)phenyl)-2-hydroxyethane-1-sulfonamide] |
| 0.009 | 0.365 |  | Cc1cc(-c2cnn(-c3ccc(NS(=O)(=O)CCO)cc3N3CCC(C)(F)CC3)c2)nc(N2CCC(F)(F)CC2)n1 [Example I-117, N-(4-(4-(2-(4,4-Difluoropiperidin-1-yl)-6-methylpyrimidin-4-yl)-1H-pyrazol-1-yl)-3-(4-fluoro-4-methylpiperidin-1-yl)phenyl)-2-hydroxyethane-1-sulfonamide] |
| 0.01 | 0.56 |  | Cc1cc(-c2nnc(-c3ccc(NS(=O)(=O)CCO)cc3N3CCC4(CC3)CC4)o2)nc(N2CCC3(CC3)C2)n1 [Example I-17, 2-Hydroxy-N-(4-(5-(6-methyl-2-(5-azaspiro[2.4]heptan-5-yl)pyrimidin-4-yl)-1,3,4-oxadiazol-2-yl)-3-(6-azaspiro[2.5]octan-6-yl)phenyl)ethane-1-sulfonamide] |
| 0.005 | 0.073 |  | Cc1cc(-c2cnn(-c3ccc(NS(=O)(=O)[C@H](C)CO)cc3N3CCC4(CC3)CC4)c2)nc(N2CCC(F)(F)CC2)n1 [Example I-111, (R)—N-(4-(4-(2-(4,4-Difluoropiperidin-1-yl)-6-methylpyrimidin-4-yl)-1H-pyrazol-1-yl)-3-(6-azaspiro[2.5]octan-6-yl)phenyl)-1-hydroxypropane-2-sulfonamide] |
| 0.007 | 0.186 |  | Cc1cc(-c2nnc(-c3ccc(NS(=O)(=O)CCO)cc3N3CCC4(CC3)CC4)o2)nc(N2CCC(F)(F)C2)n1 [Example I-5, N-(4-(5-(2-(3,3-Difluoropyrrolidin-1-yl)-6-methylpyrimidin-4-yl)-1,3,4-oxadiazol-2-yl)-3-(6-azaspiro[2.5]octan-6-yl)phenyl)-2-hydroxyethane-1-sulfonamide] |
| 0.001 | 0.015 |  | Cc1cc(-c2nnc(-c3ccc(NS(=O)(=O)CCO)cc3N3CCC4(CC3)CC4)o2)nc(N2CC3C(C2)C3(F)F)n1 (stereo not drawn) [Example I-88, N-(4-(5-(2-(6,6-Difluoro-3-azabicyclo[3.1.0]hexan-3-yl)-6-methylpyrimidin-4-yl)-1,3,4-oxadiazol-2-yl)-3-(6-azaspiro[2.5]octan-6-yl)phenyl)-2-hydroxyethane-1-sulfonamide] |
| 0.007 | 0.051 |  | Cc1cc(-c2cnn(-c3ccc(NS(=O)(=O)CCO)cc3N3CCC4(CC3)CC4)c2)nc(N2CC3C(C2)C3(F)F)n1 (stereo not drawn) [Example I-113, N-(4-(4-(2-(6,6-Difluoro-3-azabicyclo[3.1.0]hexan-3-yl)-6-methylpyrimidin-4-yl)-1H-pyrazol-1-yl)-3-(6-azaspiro[2.5]octan-6-yl)phenyl)-2-hydroxyethane-1-sulfonamide] |
| 0.001 |  | 0.045 | Cc1cc(-c2nnc(-c3ccc(NS(=O)(=O)CCO)cc3N3CCC4(CC3)CC4)o2)cc(N2CCC(F)(F)CC2)n1 [Example I-52, N-(4-(5-(2-(4,4-Difluoropiperidin-1-yl)-6-methylpyridin-4-yl)-1,3,4-oxadiazol-2-yl)-3-(6-azaspiro[2.5]octan-6-yl)phenyl)-2-hydroxyethane-1-sulfonamide] |
